Experimental data from BindingDB's records for doi:10.1021/acschembio.6b00720 (University of Michigan, 2016).

What was measured:
[1] = target: T1, Acyl-protein thioesterase 2 (Homo sapiens, UniProt O95372); experiment: Fluorescence Binding Assays; settings: 25 °C
[2] = target: Acyl-protein thioesterase 2 [S122A] (Homo sapiens, UniProt O95372, S122A); experiment: Fluorescence Binding Assays; settings: 25 °C
[3] = target: Acyl-protein thioesterase 2 [H152R] (Homo sapiens, UniProt O95372, H152R); experiment: Steady-State Kinetic Assays; settings: pH 6.5
Acyl-protein thioesterase 2 [H152R], sequence (O95372 whole entry H152R): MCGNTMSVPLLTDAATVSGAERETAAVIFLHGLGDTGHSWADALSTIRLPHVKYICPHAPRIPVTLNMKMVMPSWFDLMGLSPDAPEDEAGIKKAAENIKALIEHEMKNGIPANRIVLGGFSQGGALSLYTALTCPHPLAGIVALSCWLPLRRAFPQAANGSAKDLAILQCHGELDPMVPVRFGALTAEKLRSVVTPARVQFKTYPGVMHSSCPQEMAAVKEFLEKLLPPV
Method: (§1) Enzymes were diluted to 10 nM in PBS pH 6.5 (adjusted with sodium acetate) supplemented with 0.1 g/L pluronic F127 (Sigma). Varying concentrations of resorufin acetate (Sigma) in DMSO were added as 5 μL aliquots to clear-bottom 96-well plates (Greiner bio-one). Using a multi-channel pipette, 95 μL of enzyme was added to each well and quickly mixed by pipetting up and down several times. Each enzyme was assayed in 2 separate runs, each with 4 replicates per substrate concentration and 4 replicates of catalytic-dead enzyme.

[4] = target: Acyl-protein thioesterase 2 [L78I,A85S,P86Q,H152R,R153A,A154S] (Homo sapiens, UniProt O95372, A154S/A85S/H152R/L78I/P86Q/R153A); experiment: Steady-State Kinetic Assays; settings: pH 6.5
Acyl-protein thioesterase 2 [L78I,A85S,P86Q,H152R,R153A,A154S], sequence (O95372 whole entry L78I/A85S/P86Q/H152R/R153A/A154S): as the sequence (O95372 whole entry H152R) above, with L78I, A85S, P86Q, R153A, A154S counted along it
Method: as §1

[5] = target: T1, Acyl-protein thioesterase 2; experiment: Steady-State Kinetic Assays; settings: pH 6.5
Method: as §1

[6] = target: Acyl-protein thioesterase 2 [M178L] (Homo sapiens, UniProt O95372, M178L); experiment: Steady-State Kinetic Assays; settings: pH 6.5
Acyl-protein thioesterase 2 [M178L], sequence (O95372 whole entry M178L): as the sequence (O95372 whole entry H152R) above, with R152H, M178L counted along it
Method: as §1

[7] = target: Acyl-protein thioesterase 2 [L78I,A85S] (Homo sapiens, UniProt O95372, A85S/L78I); experiment: Steady-State Kinetic Assays; settings: pH 6.5
Acyl-protein thioesterase 2 [L78I,A85S], sequence (O95372 whole entry L78I/A85S): as the sequence (O95372 whole entry H152R) above, with L78I, A85S, R152H counted along it
Method: as §1

[8] = target: Acyl-protein thioesterase 2 [L78I,A85S,P86Q] (Homo sapiens, UniProt O95372, A85S/L78I/P86Q); experiment: Steady-State Kinetic Assays; settings: pH 6.5
Acyl-protein thioesterase 2 [L78I,A85S,P86Q], sequence (O95372 whole entry L78I/A85S/P86Q): as the sequence (O95372 whole entry H152R) above, with L78I, A85S, P86Q, R152H counted along it
Method: as §1

[9] = target: Acyl-protein thioesterase 2 [P86Q] (Homo sapiens, UniProt O95372, P86Q); experiment: Steady-State Kinetic Assays; settings: pH 6.5
Acyl-protein thioesterase 2 [P86Q], sequence (O95372 whole entry P86Q): as the sequence (O95372 whole entry H152R) above, with P86Q, R152H counted along it
Method: as §1

[10] = target: Acyl-protein thioesterase 2 [L78I] (Homo sapiens, UniProt O95372, L78I); experiment: Steady-State Kinetic Assays; settings: pH 6.5
Acyl-protein thioesterase 2 [L78I], sequence (O95372 whole entry L78I): as the sequence (O95372 whole entry H152R) above, with L78I, R152H counted along it
Method: as §1

[11] = target: Acyl-protein thioesterase 1 [I75L,S82A] (Homo sapiens, UniProt O75608, I75L/S82A); experiment: Steady-State Kinetic Assays; settings: pH 6.5
Acyl-protein thioesterase 1 [I75L,S82A], sequence (O75608 whole entry I75L/S82A): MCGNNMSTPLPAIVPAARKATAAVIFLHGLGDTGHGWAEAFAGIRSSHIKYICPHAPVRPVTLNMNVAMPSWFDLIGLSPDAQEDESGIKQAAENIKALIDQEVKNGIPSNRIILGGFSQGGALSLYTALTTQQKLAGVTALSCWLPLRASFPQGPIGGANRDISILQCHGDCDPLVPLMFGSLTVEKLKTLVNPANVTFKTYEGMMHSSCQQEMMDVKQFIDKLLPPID
Method: as §1

[12] = target: Acyl-protein thioesterase 1 (Homo sapiens, UniProt O75608); experiment: Steady-State Kinetic Assays; settings: pH 6.5
Acyl-protein thioesterase 1, sequence (O75608 whole entry): as the sequence (O75608 whole entry I75L/S82A) above, with L75I, A82S counted along it
Method: as §1

[13] = target: Acyl-protein thioesterase 1 [I75L,S82A,Q83P,R149H,A150R,S151A] (Homo sapiens, UniProt O75608, A150R/I75L/Q83P/R149H/S151A/S82A); experiment: Steady-State Kinetic Assays; settings: pH 6.5
Acyl-protein thioesterase 1 [I75L,S82A,Q83P,R149H,A150R,S151A], sequence (O75608 whole entry I75L/S82A/Q83P/R149H/A150R/S151A): as the sequence (O75608 whole entry I75L/S82A) above, with Q83P, R149H, A150R, S151A counted along it
Method: as §1

[14] = target: Acyl-protein thioesterase 1 [I75L,S82A,Q83P] (Homo sapiens, UniProt O75608, I75L/Q83P/S82A); experiment: Steady-State Kinetic Assays; settings: pH 6.5
Acyl-protein thioesterase 1 [I75L,S82A,Q83P], sequence (O75608 whole entry I75L/S82A/Q83P): as the sequence (O75608 whole entry I75L/S82A) above, with Q83P counted along it
Method: as §1

[15] = target: Acyl-protein thioesterase 1 [I75L] (Homo sapiens, UniProt O75608, I75L); experiment: Steady-State Kinetic Assays; settings: pH 6.5
Acyl-protein thioesterase 1 [I75L], sequence (O75608 whole entry I75L): as the sequence (O75608 whole entry I75L/S82A) above, with A82S counted along it
Method: as §1

[16] = target: Acyl-protein thioesterase 1 [L176M] (Homo sapiens, UniProt O75608, L176M); experiment: Steady-State Kinetic Assays; settings: pH 6.5
Acyl-protein thioesterase 1 [L176M], sequence (O75608 whole entry L176M): as the sequence (O75608 whole entry I75L/S82A) above, with L75I, A82S, L176M counted along it
Method: as §1

[17] = target: Acyl-protein thioesterase 1 [Q83P] (Homo sapiens, UniProt O75608, Q83P); experiment: Steady-State Kinetic Assays; settings: pH 6.5
Acyl-protein thioesterase 1 [Q83P], sequence (O75608 whole entry Q83P): as the sequence (O75608 whole entry I75L/S82A) above, with L75I, A82S, Q83P counted along it
Method: as §1

Acyl-protein thioesterase 2 [S122A], sequence (O95372 whole entry S122A): as the sequence (O95372 whole entry H152R) above, with S122A, R152H counted along it
T1 sequence (O95372 whole entry): as the sequence (O95372 whole entry H152R) above, with R152H counted along it

| Kd [1] [µM] | Kd [2] [µM] | Ki [3] [µM] | Ki [4] [µM] | Ki [5] [µM] | Ki [6] [µM] | Ki [7] [µM] | Ki [8] [µM] | Ki [9] [µM] | Ki [10] [µM] | IC50 [1] [µM] | IC50 [2] [µM] | Ki [11] [µM] | Ki [12] [µM] | Ki [13] [µM] | Ki [14] [µM] | Ki [15] [µM] | Ki [16] [µM] | Ki [17] [µM] | SMILES |
| --- | --- | --- | --- | --- | --- | --- | --- | --- | --- | --- | --- | --- | --- | --- | --- | --- | --- | --- | --- |
| 1.02 | 0.77 | – | – | – | – | – | – | – | – | – | – | – | – | – | – | – | – | – | O=C1C=CC2C(=C1)Oc1cc(O)ccc1C2c1cc(C(=O)NCCOCCOCCOCCn2cc(COc3ccc(N4CCN(C(=O)c5cc6c(s5)-c5ccccc5S(=O)(=O)C6)CC4)cc3)nn2)ccc1C(=O)O (stereo not drawn) |
| – | – | > 10 | 0.43 | > 10 | > 10 | 6.2 | 3.4 | > 10 | 5.8 | – | – | – | – | – | – | – | – | – | O=C(CN1CCN(C(=O)c2ccco2)CC1)Nc1cc(C(F)(F)F)ccc1Cl [ML348] |
| > 10 | > 10 | – | – | – | – | – | – | – | – | > 100 | > 100 | – | – | – | – | – | – | – | COc1ccc(N2CCN(C(=O)c3cc4c(s3)-c3ccccc3SC4)CC2)cc1 [ML349-thioether] |
| 0.24 | 0.16 | 0.66 | > 10 | 0.12 | 0.2 | > 10 | > 10 | 0.13 | > 10 | 1.1 | 1 | 0.28 | > 10 | 0.18 | 1.2 | 0.37 | > 10 | > 10 | COc1ccc(N2CCN(C(=O)c3cc4c(s3)-c3ccccc3S(=O)(=O)C4)CC2)cc1 [ML349] |
